Organism: Rattus norvegicus
Assay: DrugMatrix - Regimen: Daily Repeat
Type: toxicity, organism-based, Sprague-Dawley
Design: regimen Daily Repeat, gender Male, age 6-8 weeks
Details: in vivo, po, route oral GAVAGE, […]; for ABSOLUTE BASOPHIL / ABSOLUTE EOSINOPHIL / ABSOLUTE LYMPHOCYTE / ABSOLUTE MONOCYTE / ABSOLUTE SEGMENTED NEUTROPHIL / BASOPHIL / EOSINOPHIL / ERYTHROCYTE COUNT / HEMATOCRIT / HEMOGLOBIN / LEUKOCYTE COUNT / LYMPHOCYTE / MEAN CORPUSCULAR HEMOGLOBIN / MEAN CORPUSCULAR HEMOGLOBIN CONCENTRATION / MEAN CORPUSCULAR VOLUME / MONOCYTE / NEUTROPHIL / NUCLEATED RED BLOOD CELLS / PLATELET COUNT: tissue Blood; for ALANINE AMINOTRANSFERASE / ALBUMIN / ALKALINE PHOSPHATASE / ASPARTATE AMINOTRANSFERASE / BLOOD UREA NITROGEN / CARBON DIOXIDE / CHLORIDE / CHOLESTEROL / CREATINE PHOSPHOKINASE / CREATININE / GLUCOSE / LACTATE DEHYDROGENASE / LIPASE / PHOSPHORUS / POTASSIUM / SODIUM / TOTAL BILIRUBIN / TOTAL PROTEIN / URIC ACID: tissue Plasma
[1] = 40 mg/kg, 72 h, dose level Low, time 3 day
[2] = 40 mg/kg, 120 h, dose level Low, time 5 day
[3] = 450 mg/kg, 72 h, dose level High, time 3 day
[4] = 450 mg/kg, 120 h, dose level High, time 5 day

CC(c1cc2ccccc2s1)N(O)C(N)=O (configuration not stated) [ZILEUTON]
ABSOLUTE BASOPHIL [1]: 0 CELLS/uL
ABSOLUTE EOSINOPHIL [1]: 103.33 CELLS/uL
ABSOLUTE LYMPHOCYTE [1]: 13682 CELLS/uL
ABSOLUTE MONOCYTE [1]: 0 CELLS/uL
ABSOLUTE SEGMENTED NEUTROPHIL [1]: 1348 CELLS/uL
BASOPHIL [1]: 0%
EOSINOPHIL [1]: 0.67%
ERYTHROCYTE COUNT [1]: 5.58 x10E6/uL
HEMATOCRIT [1]: 34.97%
HEMOGLOBIN [1]: 13.77 G/DL
LEUKOCYTE COUNT [1]: 15.13 x10E3/uL
LYMPHOCYTE [1]: 90.33%
MEAN CORPUSCULAR HEMOGLOBIN [1]: 24.67 pg
MEAN CORPUSCULAR HEMOGLOBIN CONCENTRATION [1]: 39.37 G/DL
MEAN CORPUSCULAR VOLUME [1]: 62.67 fL
MONOCYTE [1]: 0%
NEUTROPHIL [1]: 9%
NUCLEATED RED BLOOD CELLS [1]: 0 /100WBC
PLATELET COUNT [1]: 1217.67 x10E3/uL
ALANINE AMINOTRANSFERASE [1]: 75.33 u/L
ALBUMIN [1]: 3.93 G/DL
ALKALINE PHOSPHATASE [1]: 442 u/L
ASPARTATE AMINOTRANSFERASE [1]: 87.67 u/L
BLOOD UREA NITROGEN [1]: 14 mg/dL
CARBON DIOXIDE [1]: 32.33 mmol/L
CHLORIDE [1]: 100 MEQ/L
CHOLESTEROL [1]: 66.67 mg/dL
CREATINE PHOSPHOKINASE [1]: 201.33 u/L
CREATININE [1]: 0.14 mg/dL
GLUCOSE [1]: 160 mg/dL
LACTATE DEHYDROGENASE [1]: 148.33 u/L
LIPASE [1]: 10.67 u/L
PHOSPHORUS [1]: 10.8 mg/dL
POTASSIUM [1]: 6.7 MEQ/L
SODIUM [1]: 140.3 MEQ/L
TOTAL BILIRUBIN [1]: 0.17 mg/dL
TOTAL PROTEIN [1]: 5.37 G/DL
URIC ACID [1]: 1.53 mg/dL
ABSOLUTE BASOPHIL [2]: 0 CELLS/uL
ABSOLUTE EOSINOPHIL [2]: 0 CELLS/uL
ABSOLUTE LYMPHOCYTE [2]: 9935.67 CELLS/uL
ABSOLUTE MONOCYTE [2]: 247 CELLS/uL
ABSOLUTE SEGMENTED NEUTROPHIL [2]: 1084 CELLS/uL
BASOPHIL [2]: 0%
EOSINOPHIL [2]: 0%
ERYTHROCYTE COUNT [2]: 5.6 x10E6/uL
HEMATOCRIT [2]: 34.1%
HEMOGLOBIN [2]: 13.83 G/DL
LEUKOCYTE COUNT [2]: 11.27 x10E3/uL
LYMPHOCYTE [2]: 89%
MEAN CORPUSCULAR HEMOGLOBIN [2]: 24.77 pg
MEAN CORPUSCULAR HEMOGLOBIN CONCENTRATION [2]: 40.57 G/DL
MEAN CORPUSCULAR VOLUME [2]: 60.97 fL
MONOCYTE [2]: 2%
NEUTROPHIL [2]: 9%
NUCLEATED RED BLOOD CELLS [2]: 0 /100WBC
PLATELET COUNT [2]: 1094 x10E3/uL
ALANINE AMINOTRANSFERASE [2]: 62 u/L
ALBUMIN [2]: 4.23 G/DL
ALKALINE PHOSPHATASE [2]: 479.33 u/L
ASPARTATE AMINOTRANSFERASE [2]: 79.33 u/L
BLOOD UREA NITROGEN [2]: 13.67 mg/dL
CARBON DIOXIDE [2]: 32 mmol/L
CHLORIDE [2]: 100.67 MEQ/L
CHOLESTEROL [2]: 62 mg/dL
CREATINE PHOSPHOKINASE [2]: 165.33 u/L
CREATININE [2]: 0.2 mg/dL
GLUCOSE [2]: 145 mg/dL
LACTATE DEHYDROGENASE [2]: 111.67 u/L
LIPASE [2]: 11 u/L
PHOSPHORUS [2]: 10.6 mg/dL
POTASSIUM [2]: 6.47 MEQ/L
SODIUM [2]: 141.17 MEQ/L
TOTAL BILIRUBIN [2]: 0.17 mg/dL
TOTAL PROTEIN [2]: 5.67 G/DL
URIC ACID [2]: 1.47 mg/dL
ABSOLUTE BASOPHIL [3]: 0 CELLS/uL
ABSOLUTE EOSINOPHIL [3]: 0 CELLS/uL
ABSOLUTE LYMPHOCYTE [3]: 15031 CELLS/uL
ABSOLUTE MONOCYTE [3]: 0 CELLS/uL
ABSOLUTE SEGMENTED NEUTROPHIL [3]: 1769 CELLS/uL
BASOPHIL [3]: 0%
EOSINOPHIL [3]: 0%
ERYTHROCYTE COUNT [3]: 5.39 x10E6/uL
HEMATOCRIT [3]: 32.93%
HEMOGLOBIN [3]: 13.6 G/DL
LEUKOCYTE COUNT [3]: 16.8 x10E3/uL
LYMPHOCYTE [3]: 89.33%
MEAN CORPUSCULAR HEMOGLOBIN [3]: 25.27 pg
MEAN CORPUSCULAR HEMOGLOBIN CONCENTRATION [3]: 41.33 G/DL
MEAN CORPUSCULAR VOLUME [3]: 61.1 fL
MONOCYTE [3]: 0%
NEUTROPHIL [3]: 10.67%
NUCLEATED RED BLOOD CELLS [3]: 0.33 /100WBC
PLATELET COUNT [3]: 1249 x10E3/uL
ALANINE AMINOTRANSFERASE [3]: 87.67 u/L
ALBUMIN [3]: 3.67 G/DL
ALKALINE PHOSPHATASE [3]: 458 u/L
ASPARTATE AMINOTRANSFERASE [3]: 128 u/L
BLOOD UREA NITROGEN [3]: 17.67 mg/dL
CARBON DIOXIDE [3]: 25.33 mmol/L
CHLORIDE [3]: 103.67 MEQ/L
CHOLESTEROL [3]: 65.67 mg/dL
CREATINE PHOSPHOKINASE [3]: 774.33 u/L
CREATININE [3]: 0.18 mg/dL
GLUCOSE [3]: 148.33 mg/dL
LACTATE DEHYDROGENASE [3]: 301.67 u/L
LIPASE [3]: 10.67 u/L
PHOSPHORUS [3]: 12.57 mg/dL
POTASSIUM [3]: 5.93 MEQ/L
SODIUM [3]: 142.9 MEQ/L
TOTAL BILIRUBIN [3]: 0.2 mg/dL
TOTAL PROTEIN [3]: 5.13 G/DL
URIC ACID [3]: 1.47 mg/dL
ABSOLUTE BASOPHIL [4]: 0 CELLS/uL
ABSOLUTE EOSINOPHIL [4]: 45 CELLS/uL
ABSOLUTE LYMPHOCYTE [4]: 16299.33 CELLS/uL
ABSOLUTE MONOCYTE [4]: 207.67 CELLS/uL
ABSOLUTE SEGMENTED NEUTROPHIL [4]: 1114.67 CELLS/uL
BASOPHIL [4]: 0%
EOSINOPHIL [4]: 0.33%
ERYTHROCYTE COUNT [4]: 5.62 x10E6/uL
HEMATOCRIT [4]: 34.17%
HEMOGLOBIN [4]: 13.87 G/DL
LEUKOCYTE COUNT [4]: 17.67 x10E3/uL
LYMPHOCYTE [4]: 92.33%
MEAN CORPUSCULAR HEMOGLOBIN [4]: 24.73 pg
MEAN CORPUSCULAR HEMOGLOBIN CONCENTRATION [4]: 40.6 G/DL
MEAN CORPUSCULAR VOLUME [4]: 60.87 fL
MONOCYTE [4]: 1%
NEUTROPHIL [4]: 6.33%
NUCLEATED RED BLOOD CELLS [4]: 0 /100WBC
PLATELET COUNT [4]: 1205.33 x10E3/uL
ALANINE AMINOTRANSFERASE [4]: 64.33 u/L
ALBUMIN [4]: 4.1 G/DL
ALKALINE PHOSPHATASE [4]: 388 u/L
ASPARTATE AMINOTRANSFERASE [4]: 79.33 u/L
BLOOD UREA NITROGEN [4]: 16 mg/dL
CARBON DIOXIDE [4]: 37.67 mmol/L
CHLORIDE [4]: 99.33 MEQ/L
CHOLESTEROL [4]: 79 mg/dL
CREATINE PHOSPHOKINASE [4]: 125 u/L
CREATININE [4]: 0.15 mg/dL
GLUCOSE [4]: 142 mg/dL
LACTATE DEHYDROGENASE [4]: 75 u/L
LIPASE [4]: 10.33 u/L
PHOSPHORUS [4]: 10.97 mg/dL
POTASSIUM [4]: 6.65 MEQ/L
SODIUM [4]: 142.6 MEQ/L
TOTAL BILIRUBIN [4]: 0.2 mg/dL
TOTAL PROTEIN [4]: 5.8 G/DL
URIC ACID [4]: 1.7 mg/dL
